Tested on: spontaneous SWDs of Long-Evans rats
Assay: In vivo anti-epileptic therapy, spontaneous spike-wave discharges (SWDs)
Set-up: species or system rat
Settings: before and after application, ESM 28 mg/Kg i.p., ESM-SAIO and ESM-device 40 mg/Kg (FIG. 12)
Description: Adult male Long-Evans and Wistar rats were used in this study. All rats were kept in a sound-attenuated room under a 12:12 hr light-dark cycle (07:00-19:00 lights on) with food and water provided ad libitum. The experimental procedures were reviewed and approved by the Institutional Animal Care and Use Committee. Briefly, the recording electrodes were implanted under pentobarbital anesthesia (60 mg/kg, i.p.). Subsequently, the rat was placed in a standard stereotaxic apparatus. In total, six stainless steel screws were driven bilaterally into the skull overlying the frontal (A +2.0, L 2.0 with reference to the bregma) and occipital (A −6.0, L 2.0) regions of the cortex to record cortical field potentials. A ground electrode was implanted 2 mm caudal to lambda. Dental cement was applied to fasten the connection socket to the surface of the skull. Following suturing to complete the surgery, animals were given an antibiotic (chlortetracycline) and housed individually in cages for recovery. […] To confirm the cortical focus theory of SWDs, a pharmacological epileptic rat model, low-dose pentylenetetrazol (PTZ) (20 mg/kg, i.p.) in Wistar rats, was also used. […] In this experiment, 1-hour spontaneous brain activity before the treatment (baseline) and another 1-hour spontaneous brain activity 30 minutes after the treatment were recorded, respectively. […]

With `CCC1(C)CC(=O)NC1=O` (centres unmarked) [ESM, ethosuximide] the SWD number was “significantly reduced” and the “total SWD duration” value was “significantly reduced”.

From patent publication US20110014296A1, “Drug Delivery Nanodevice, its Preparation Method and Uses Thereof” (NATIONAL CHIAO TUNG UNIVERSITY, priority 2009, published 2011)
